Data on three compounds can be found in paper PMC9227096, “Design, Synthesis, and In Vitro, In Silico and In Cellulo Evaluation of New Pyrimidine and Pyridine Amide and Carbamate Derivatives as Multi-Functional Cholinesterase Inhibitors” (Pharmaceuticals, 2022).

Assay [1] has as its target T1, equine BChE (eqBChE) (Equus caballus, UniProt P81908).
T1 construct: purchased Sigma-Aldrich (Milan, Italy)
Put plainly: Inhibition constant and mechanism vs. eqBChE by Dixon's method. Format: biochemical. The settings on record: inhibitor 200-1800 nM, acetylthiocholine 100-300 µM; for Ki: eqBChE, read-out: Ki ± SD. As for the experimental part: The recorded data were analysed with the enzyme kinetic module of SigmaPlot in order to find the best fitting model of inhibition, using the linear regression analysis. The reference kinetic models used in the regression analysis were: competitive, non-competitive, uncompetitive and mixed. Each determination was repeated five times and incorrect values were discarded to reduce the standard deviation to within the limit of 5%. In this way, the regression lines obtained have a linear regression coefficient (R^2) higher than 0.98. […] The Dixon’s plots of tested compounds are reported in the Supplementary Materials (Figures S1 and S2).
The constant and the mechanism of inhibition vs. eqBChE were determined for the compounds 12 and 14. For each compound a 500 μM stock solution was prepared in H2O/DMSO and diluted in water to prepare solutions of opportune concentrations (10, 30 and 60 μM) in order to introduce the cuvette volumes ranging from 60 to 100 μL to obtain the desired final concentrations (200–1800 nM). The maximum amount of DMSO used for the preparation of the stock solution was calculated in order to obtain a DMSO content in cuvette of <0.033%.
An amount of 3.0 mL of 0.1 M phosphate buffer (pH = 7.4), containing DTNB (0.25 mM) and eqBChE (0.083 UmL^−1), were mixed with the opportune volume of inhibitor, to obtain, in the cuvette, a final inhibitor concentration between 200 and 1800 nM. With this solution the blank was made. […]. The absorbance variations were measured at 412 nm at 25 °C between 0.5 and 1.5 min.
In order to determine the inhibition constants (Ki) and inhibition mechanism the rates of hydrolysis at three different concentrations of substrate in the presence of five different concentration of inhibitor were measured. The recorded data were analyzed by the enzyme kinetic module of SigmaPlot (version 8.02), plotting the reciprocal of rate of hydrolysis (1/v, min/μM) vs. the concentration of inhibitor (nM), according to Dixon’s method in order to find the best fitting model of inhibition, as indicated by calculated linear regression coefficient R^2.

Assay [2] concerns the target T2, tau protein (Homo sapiens, UniProt P10636).
T2 construct: expressed in transfected cells; host or cells: E. coli BL21 (DE3) with pTARA (T7 RNA polymerase under PBAD) and pRKT42
Kind of assay: Inhibition of tau aggregation in intact E. coli cells, thioflavin-S staining. The settings on record: [I] = 100 µM, E. coli cells overexpressing tau. The assay is classed as cell-based, Escherichia coli. As for the experimental part: For compounds 12, 14 and 18, the inhibitory activity against Aβ42 and tau aggregation was evaluated. The anti-aggregating effect of tested compounds was monitored by a cell-based assay in intact Escherichia coli cells that overexpress either Aβ42 peptide or tau protein, which, upon expression, form insoluble inclusion bodies that were stained with thioflavin-S [42]. The percentages of inhibition towards Aβ42 and tau aggregation were determined at an inhibitor concentration of 100 µM and the obtained results are reported in Table 6. In general, these compounds show a weak anti-aggregating activity; among these, the pyridine carbamate 18 is the best inhibitor of aggregation of both Aβ42 and tau.
E. coli BL21 (DE3) competent cells were transformed with pTARA containing the RNA-polymerase gene of T7 phage (T7RP), under the control of the promoter PBAD. E. coli BL21 (DE3), with pTARA competent cells, were transformed with the pRKT42 vector encoding four repeats of the tau protein in two inserts. For overnight culture preparation, 10 mL of the M9 medium containing 0.5% of glucose, 50 μg·mL^−1 of ampicillin, and 12.5 μg·mL^−1 of chloramphenicol was inoculated with a colony of BL21 (DE3) bearing the plasmids to be expressed at 37 °C. […]
Th-S (T1892) and other chemical reagents were purchased from Sigma (St. Louis, MO, USA). […] Th-S fluorescence and absorbance were tracked using a DTX 800 plate reader Multimode Detector equipped with a Multimode Analysis Software (Beckman-Coulter, Indianapolis, IN, USA). […] A filter of 535/25 nm was also used for the absorbance determination. To normalize the Th-S fluorescence as a function of the bacterial concentration, OD600 was obtained using a Shimadzu UV-2401 PC UV–Vis spectrophotometer (Shimadzu, Japan). Note that the fluorescence normalisation was carried out considering 100% of the Th-S fluorescence of the bacterial cells expressing the peptide or protein in the absence of the drug and 0% of the Th-S fluorescence of the bacterial cells not expressing the peptide or protein. […]

Assay [3] addresses T1, equine BChE (eqBChE). Kind of assay: Determination of IC50 vs. eqBChE. Format: biochemical. Particulars: IC50 ± SE, 100 µM acetylthiocholine, compound 18 after incubation for 1 h. As for the experimental part: The recorded data were analyzed with the enzyme kinetic module of SigmaPlot (Systat Software, Palo alto, CA, USA). Each measurement was replicated three times and the IC50 value obtained was confirmed by repeating the experiment twice. […] The IC50 plot of the tested compound is reported in the Supplementary Materials (Figure S3).
The recorded data were analyzed by the enzyme kinetic module of SigmaPlot, plotting the percentages of inhibition as a function of the different concentrations of inhibitor, expressed in logarithmic scale, in order to obtain the sigmoid graph, from which it was possible to determinate the IC50 value of the tested compound. The IC50 value was confirmed by repeating the experiment twice.

T1 sequence (P81908 whole entry): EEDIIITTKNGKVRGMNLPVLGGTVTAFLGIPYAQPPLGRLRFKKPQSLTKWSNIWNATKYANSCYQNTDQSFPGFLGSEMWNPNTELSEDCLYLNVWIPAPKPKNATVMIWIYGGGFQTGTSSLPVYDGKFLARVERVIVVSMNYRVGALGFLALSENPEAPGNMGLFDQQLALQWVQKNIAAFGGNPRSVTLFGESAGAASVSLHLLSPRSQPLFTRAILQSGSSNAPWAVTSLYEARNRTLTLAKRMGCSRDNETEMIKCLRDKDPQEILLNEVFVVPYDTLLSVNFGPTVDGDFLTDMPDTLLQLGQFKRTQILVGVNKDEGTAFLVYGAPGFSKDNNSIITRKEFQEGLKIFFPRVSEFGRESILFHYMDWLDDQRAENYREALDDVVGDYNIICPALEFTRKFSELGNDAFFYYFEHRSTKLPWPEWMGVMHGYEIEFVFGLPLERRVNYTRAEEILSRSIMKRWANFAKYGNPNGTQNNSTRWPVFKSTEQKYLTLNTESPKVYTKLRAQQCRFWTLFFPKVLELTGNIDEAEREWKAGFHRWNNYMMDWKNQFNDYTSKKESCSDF
T2 sequence (P10636 1-441 isoform P10636-8): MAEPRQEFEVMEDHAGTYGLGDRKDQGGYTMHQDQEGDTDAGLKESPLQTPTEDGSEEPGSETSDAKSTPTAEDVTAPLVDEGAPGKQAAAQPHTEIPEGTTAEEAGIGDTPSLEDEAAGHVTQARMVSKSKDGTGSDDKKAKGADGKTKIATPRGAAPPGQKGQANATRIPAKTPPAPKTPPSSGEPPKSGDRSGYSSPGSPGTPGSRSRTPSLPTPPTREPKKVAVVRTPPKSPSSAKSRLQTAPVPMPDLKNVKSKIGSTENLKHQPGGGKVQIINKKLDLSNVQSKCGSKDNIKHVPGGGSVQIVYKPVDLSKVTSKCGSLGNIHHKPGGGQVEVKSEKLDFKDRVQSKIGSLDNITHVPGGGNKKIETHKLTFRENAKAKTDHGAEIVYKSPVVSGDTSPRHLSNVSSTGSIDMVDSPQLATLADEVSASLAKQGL

Usually Ki stands for a measure of affinity in units of concentration, obtained from inhibition or displacement. In general, inhibition refers to the percentage by which the read-out fell short of the control. Lower therefore signals a response near the control. `O=C(NCCCCCCNc1ccccn1)c1ccccc1` [Compound 12, N-(6-(pyridin-2-ylamino)hexyl)benzamide]: in assay [1], the Ki amounted to 2990 ± 190 nM and the “Mechanism of inhibition on eqBChE” value is on record as “Competitive”. In assay [2], this compound returned an inhibition at 100 µM of 11%.
On to `O=C(Cc1ccc(Oc2ccccc2)cc1)NCCCCCCNc1ccccn1` [Compound 14, 2-(4-phenoxyphenyl)-N-(6-(pyridin-2-ylamino)hexyl)acetamide], for which, in assay [1], the inhibition constant Ki was 621 ± 43 nM and the “Mechanism of inhibition on eqBChE” value is on record as “Competitive”. The inhibition at 100 µM in assay [2] was 10.9%.
In general, IC50 refers to the concentration that gives 50% inhibition. Lower therefore signals greater potency in that assay. In assay [3], `O=C(NCCCCCCNc1ccccn1)Oc1ccccc1` [Compound 18, Phenyl (6-(pyridin-2-ylamino)hexyl)carbamate] displayed an IC50 of 454 nM. This compound came in with an inhibition at 100 µM in assay [2] of 15.7%.
